Data: patent US6962943B2, “Gabusectin derivatives, processes for preparing them and their use” (Aventis Pharma Deutschland GmbH, priority 2002, dated 2005)
≈ marks a conversion by molar mass, not a printed value.

Tests used:
[1] = Solubility (appearance/physicochemical properties)
Source text: (§1) Stable in neutral and mildly acidic medium but unstable in strongly acidic and strongly alkali solution. […] Stable in neutral and mildly acidic medium but unstable in strongly acidic and strongly alkaline solution.

Staphylococcus aureus = assay: Agar diffusion test; format: cell-based; details: 37° C., 16 hours
Procedure: Agar plates containing 2 ml of Staphylococcus aureus inoculum in 200 ml of agar solution were prepared. gabusectin was applied, in a 10 mM solution, to 6 mm-diameter paper disks, which were then laid on the agar plate. The inoculated Staphylococcus plates were incubated at 37° C. for 16 hours. Inhibition halos having the following diameters (mm) were then observed: Agar plates containing 2 ml of Staphylococcus aureus inoculum in 200 ml of agar solution were prepared. gabusectin methyl ester is applied, in a 10 mM solution, to 6 mm-diameter paper disks, which are then laid on the agar plate. The inoculated Staphylococcus plates were incubated at 37° C. for 16 hours. Inhibition halos having the following diameters (mm) were then observed.

[2] = Stability in solution (physicochemical properties); details: for Stability in strongly acidic and strongly alkaline solution: strongly acidic and strongly alkali(ne) solution
Source text: as §1

Tolerability = details: at and above its effective concentration
Source text: Gabusectin is well-tolerated at and above its effective concentration.

E. faecium (M78L) = assay: In-vitro antibacterial activity, serial dilution test; format: cell-based; details: Enterococcus faecium, read-out: MIC values
Source text: (§2) Table 1 summarizes the minimum inhibitory concentrations (MICs) of gabusectin, by way of example.

S. aureus (SG511) = assay: as above; format: cell-based; details: Staphylococcus aureus
Source text: as §2

S. aureus (Exp54146) = assay: as above; format: cell-based; details: Staphylococcus aureus
Source text: as §2

S. pyogenes (A561) = assay: as above; format: cell-based; details: Streptococcus pyogenes
Source text: as §2

[3] = 10 μL of 10 mM solution on 6 mm paper disk
[4] = 20 μL of 10 mM solution on 6 mm paper disk
[5] = 40 μL of 10 mM solution on 6 mm paper disk

Row | SMILES | Solubility in medium-polar and polar organic solvents [1] | Solubility in water [1] | Inhibition halo size (Staphylococcus aureus; [3]) [mm] | Inhibition halo size (Staphylococcus aureus; [4]) [mm] | Inhibition halo size (Staphylococcus aureus; [5]) [mm] | Stability in neutral and mildly acidic medium [2] | Stability in strongly acidic and strongly alkaline solution [2] | Tolerability (Tolerability) | MIC (E. faecium (M78L)) [µg/mL] | MIC (S. aureus (SG511)) [µg/mL] | MIC (S. aureus (Exp54146)) [µg/mL] | MIC (S. pyogenes (A561)) [µg/mL]
1 | C/C=C/[C@H]1C(C)=C[C@@]2(C)C[C@H](C)CC[C@H]2[C@]1(C)/C(O)=C1\C(=O)C(CCC(=O)OC)N(C)C1=O (stereo partly shown) [gabusectin methyl ester] | soluble | not particularly soluble | 0 | 7 | 8 | Stable | unstable | – | – | – | – | –
2 | C/C=C/C1C(C)=CC2(C)CC(C)CCC2C1(C)/C(O)=C1\C(=O)C(CCC(=O)O)N(C)C1=O (stereo not shown) [gabusectin] | soluble | not particularly soluble | 8 | 14 | 17 | Stable | unstable | well-tolerated | 40 (≈ 90.2 µM) | 5 (≈ 11.3 µM) | 20 (≈ 45.1 µM) | 20 (≈ 45.1 µM)
